Assay results taken from paper PMC11695783 (Frontiers in Pharmacology, 2024).
Values joined by “and” are separate entries in the source; they are usually repeats but may differ in a detail not shown here. Identical values can stand only once.

Assays:
[1] = test system: Mycoplasma pneumoniae; test: In vivo pharmacodynamic study: Mycoplasma pneumoniae loads in BALF of infected mice; parameters: species or system BALB/c mice; conditions: for MPcounts in BALF (AV): group AV; for MPcounts in BALF: individual mice
Description: (§1) Adult BALB/c mice (20–22 g) were divided into a control group, a positive group, and compound 16C groups at low (20 mg/kg), medium (40 mg/kg), and high-dose (80 mg/kg) levels and oral and intramuscular tiamulin treatment groups (40 mg/kg). We formulated the above dose range based on the dose at which tiamulin was approved for injection (10–20 mg/kg) and the dose previously reported (45 mg/kg) ([EMA, 1999]; [Xiao et al., 2016]). In summary, we selected similar doses for compound 16C in vivo study. 40 mg/kg was used as an intermediate value, one-half of it as a low dose, and two times of it as a high dose. To prepare the challenge solution, logarithmic phase culture suspensions were centrifuged at 1700 g for 10 min, and the pellets were suspended in sterile PBS to obtain 1 × 10^9 CFU/mL. Before the challenge, mice were anesthetized with tribromoethanol (250 mg/kg, IP). Mice in the control groups were intratracheally inoculated with sterile PBS, whereas mice in the other groups were intratracheally challenged with 50 μL (1 × 10^9 CFU/mL) M. pneumoniae suspension once a day for 3 days. Compound 16C and tiamulin (tiamulin-IM group) dissolved using the method mentioned in pharmacokinetic studies, and the tiamulin fumarate soluble powder was dissolved in ddH2O for oral administration. After the final challenge, antibiotics were administered at low, medium, and high-dose levels (see above) at 10 a.m. and 10 p.m. daily for 4 consecutive days. Normal saline containing 5% DMSO and 5% Tween-80 was administered as control and positive groups by thigh intramuscular injection. To compare the efficacy of compound 16C and tiamulin under the same route of administration, we used the original tiamulin for intramuscular administration in the same formulation. On the other hand, tiamulin fumarate soluble powder, approved for oral administration to treat animal mycoplasma diseases in China, was administered to mice by gavage. Based on a clinical study of lefamulin in community-acquired bacterial pneumonia (CABP), subjects were administered twice a day and the 96 ± 24 h of starting treatment was an essential point for early clinical response (ECR) ([Paukner et al., 2022]). We therefore stopped treatment at 96 h and sampled at 192 h to explore whether the disease worsened after cessation of treatment. Bronchoalveolar lavage fluid (BALF) and lungs were collected at 0, 96, 192 h (Samples of 0 h were collected before starting treatment, and mice were fed ad libitum without drug treatment during 96–192 h) after the first dose, BALF for cytokine and cytological analysis and lung for histopathological evaluation.
(§2) Bronchoalveolar lavage was performed according to a standardized method ([Van Hoecke et al., 2017]). BALF was obtained following infusion of 0.5 mL PBS via tracheal cannulation into the lung twice (total 1 mL), and 200 µL was used for mycoplasma counts. The remaining BALF was centrifuged at 300 g for 10 min to separate the debris. The supernatants were stored at −80°C, and the debris was resuspended in the same volume of PBS containing red blood cell lysis buffer. A hemocytometer was used to count total cell numbers in BALF, and cell smears (Diff-Quik staining) were prepared to calculate the percentages of neutrophils, macrophages, and lymphocytes. IFN-γ, TNF-α, and CXCL1 levels in BALF samples were assessed using commercial ELISA kits using guidelines recommended by the manufacturer (Elabscience, Wuhan, China). Parallel data for each experimental group at each time point were obtained from six different mice.

[2] = test system: IFN-γ; test: IFN-γ in BALF of M. pneumoniae-infected mice (ELISA); assay type: in vivo, BALB/c mice; conditions: for IFN-γ in BALF (AV): group AV; for IFN-γ in BALF: individual mice
Description: as §1, §2

[3] = test system: CXCL1; test: CXCL1 in BALF of M. pneumoniae-infected mice (ELISA); assay type: in vivo, BALB/c mice; conditions: for CXCL1 in BALF (AV): group AV; for CXCL1 in BALF: individual mice
Description: as §1, §2

[4] = test system: Mycoplasma pneumoniae-infected mice (lung tissue); test: Histopathological assessment of lung tissue (HPS, response and recovery rates) in M. pneumoniae-infected mice; assay type: in vivo, BALB/c mice; parameters: HPS value (mean) / HPS: scale not given here; conditions: for HPS: individual mice
Description: as §1
Lung tissues were collected at 0, 96, and 192 h following drug administration. Lungs were collected from 6 mice in each group at 96 h and 13–15 mice in each group at 192 h. In addition, the lungs of 8 untreated infected mice were taken at 0 h as initial controls. Lung tissues were fixed in 4% paraformaldehyde, and whole-mount sections of paraffin-embedded lungs were stained with hematoxylin and eosin (H&E). The histopathologic score (HPS) was determined according to published protocols by a single pathologist who was unaware of the treatment status and groups of the animals ([Cimolai et al., 1992]). The HPS was based on individual grading of peribronchiolar/bronchial infiltrate, bronchiolar/bronchial luminal exudate, perivascular infiltrate, and parenchymal pneumoniae.

[5] = test system: bronchial epithelial cell line 16HBE; parameters: method as in PMID 26150841; conditions: ref [30]; cited from earlier work
[6] = compound 16C 20 mg/kg IM, 192 h
[7] = compound 16C 40 mg/kg IM, 192 h
[8] = compound 16C 80 mg/kg IM, 192 h
[9] = M. pneumoniae-infected mice, 20mg/kg, intramuscular, n=13-15
[10] = M. pneumoniae-infected mice, 40mg/kg, intramuscular, n=13-15
[11] = M. pneumoniae-infected mice, 80mg/kg, intramuscular, n=13-15
[12] = compound 16C 40 mg/kg IM, from HPS at 192 h
[13] = compound 16C 80 mg/kg IM, from HPS at 192 h

Structure (SMILES): C=CC1(C)CC(OC(=O)CSc2ccc(NC(=O)Cc3ccc([N+](=O)[O-])cc3)cc2)C2(C)C(C)CCC3(CCC(=O)C32)C(C)C1O (stereo not drawn) [compound 16C, 22–((4-((4-nitrophenyl)acetamido)phenyl)thio)deoxypleuromutilin]
- microbial reduction in BALF ([1]; compound 16C 20 mg/kg IM twice daily 4 d, 96 h): 1.40 log10 CFU/mL
- MPcounts in BALF (AV) ([1]; compound 16C 20 mg/kg IM, 96 h): 4.601 Log10CFU/mL
- MPcounts in BALF ([1]; compound 16C 20 mg/kg IM, 96 h): 5.04 Log10CFU/mL and 4.682 Log10CFU/mL and 3.8451 Log10CFU/mL and 4.709 Log10CFU/mL and 4.293 Log10CFU/mL and 5.039 Log10CFU/mL
- MPcounts in BALF (AV) [1, 6]: 3.598 Log10CFU/mL
- MPcounts in BALF [1, 6]: 3.747 Log10CFU/mL and 3.757 Log10CFU/mL and 3.482 Log10CFU/mL and 3.599 Log10CFU/mL and 3.64 Log10CFU/mL and 3.366 Log10CFU/mL
- microbial reduction in BALF ([1]; compound 16C 40 mg/kg IM twice daily 4 d, 96 h): 2.02 log10 CFU/mL
- MPcounts in BALF (AV) ([1]; compound 16C 40 mg/kg IM, 96 h): 3.896 Log10CFU/mL
- MPcounts in BALF ([1]; compound 16C 40 mg/kg IM, 96 h): 4.213 Log10CFU/mL and 4.174 Log10CFU/mL and 3.6574 Log10CFU/mL and 4.285 Log10CFU/mL and 3.708 Log10CFU/mL and 3.341 Log10CFU/mL
- MPcounts in BALF (AV) [1, 7]: 3.662 Log10CFU/mL
- MPcounts in BALF [1, 7]: 3.675 Log10CFU/mL and 3.607 Log10CFU/mL and 3.633 Log10CFU/mL and 3.784 Log10CFU/mL and 3.322 Log10CFU/mL and 3.954 Log10CFU/mL
- microbial reduction in BALF ([1]; compound 16C 80 mg/kg IM twice daily 4 d, 96 h): 2.68 log10 CFU/mL
- microbial reduction in BALF ([1]; compound 16C 80 mg/kg IM twice daily 4 d, 192 h): 2.65 log10 CFU/mL
- MPcounts in BALF (AV) ([1]; compound 16C 80 mg/kg IM, 96 h): 3.141 Log10CFU/mL
- MPcounts in BALF ([1]; compound 16C 80 mg/kg IM, 96 h): 3.314 Log10CFU/mL and 3.255 Log10CFU/mL and 3.244 Log10CFU/mL and 3.15 Log10CFU/mL and 2.656 Log10CFU/mL and 3.223 Log10CFU/mL
- MPcounts in BALF (AV) [1, 8]: 3.173 Log10CFU/mL
- MPcounts in BALF [1, 8]: 3.05 Log10CFU/mL and 3.185 Log10CFU/mL and 3.04 Log10CFU/mL and 3.438 Log10CFU/mL and 3.295 Log10CFU/mL and 3.0308 Log10CFU/mL
- IFN-γ in BALF (AV) ([2]; compound 16C 20 mg/kg IM, 96 h): 61.9115 pg/mL
- IFN-γ in BALF ([2]; compound 16C 20 mg/kg IM, 96 h): 66.1116 pg/mL and 70.7764 pg/mL and 60.3497 pg/mL and 48.4263 pg/mL and 63.8937 pg/mL
- IFN-γ in BALF (AV) [2, 6]: 53.7268 pg/mL
- IFN-γ in BALF [2, 6]: 69.6648 pg/mL and 70.9988 pg/mL and 47.7654 pg/mL and 32.8171 pg/mL and 65.2242 pg/mL and 35.8907 pg/mL
- IFN-γ in BALF (AV) ([2]; compound 16C 40 mg/kg IM, 96 h): 31.4597 pg/mL
- IFN-γ in BALF ([2]; compound 16C 40 mg/kg IM, 96 h): 36.9995 pg/mL and 36.109 pg/mL and 18.2065 pg/mL and 31.1186 pg/mL and 39.6709 pg/mL and 26.6536 pg/mL
- IFN-γ in BALF (AV) [2, 7]: 43.7114 pg/mL
- IFN-γ in BALF [2, 7]: 35.5746 pg/mL and 45.5493 pg/mL and 40.3832 pg/mL and 54.2951 pg/mL and 42.5204 pg/mL and 43.9456 pg/mL
- IFN-γ in BALF (AV) ([2]; compound 16C 80 mg/kg IM, 96 h): 33.085 pg/mL
- IFN-γ in BALF ([2]; compound 16C 80 mg/kg IM, 96 h): 42.8939 pg/mL and 46.612 pg/mL and 43.7193 pg/mL and 17.0898 pg/mL and 29.6102 pg/mL and 18.5846 pg/mL
- IFN-γ in BALF (AV) [2, 8]: 30.1626 pg/mL
- IFN-γ in BALF [2, 8]: 41.5193 pg/mL and 31.3845 pg/mL and 29.0646 pg/mL and 27.0198 pg/mL and 28.7918 pg/mL and 26.4748 pg/mL and 26.8835 pg/mL
- CXCL1 in BALF (AV) ([3]; compound 16C 20 mg/kg IM, 96 h): 48.0123 pg/mL
- CXCL1 in BALF ([3]; compound 16C 20 mg/kg IM, 96 h): 56.3478 pg/mL and 48.458 pg/mL and 47.2524 pg/mL and 45.2286 pg/mL and 42.7748 pg/mL
- CXCL1 in BALF (AV) [3, 6]: 38.192 pg/mL
- CXCL1 in BALF [3, 6]: 48.0568 pg/mL and 31.7563 pg/mL and 40.2912 pg/mL and 33.499 pg/mL and 37.352 pg/mL and 38.1966 pg/mL
- CXCL1 in BALF (AV) ([3]; compound 16C 40 mg/kg IM, 96 h): 22.7681 pg/mL
- CXCL1 in BALF ([3]; compound 16C 40 mg/kg IM, 96 h): 15.9622 pg/mL and 24.4156 pg/mL and 34.1197 pg/mL and 28.066 pg/mL and 17.0225 pg/mL
- CXCL1 in BALF (AV) [3, 7]: 28.9333 pg/mL
- CXCL1 in BALF [3, 7]: 23.476 pg/mL and 20.5799 pg/mL and 29.3957 pg/mL and 43.4026 pg/mL and 16.4951 pg/mL and 40.2505 pg/mL
- CXCL1 in BALF (AV) ([3]; compound 16C 80 mg/kg IM, 96 h): 24.5788 pg/mL
- CXCL1 in BALF ([3]; compound 16C 80 mg/kg IM, 96 h): 33.6631 pg/mL and 23.7534 pg/mL and 35.719 pg/mL and 18.1872 pg/mL and 17.5299 pg/mL and 18.6204 pg/mL
- CXCL1 in BALF (AV) [3, 8]: 39.611 pg/mL
- CXCL1 in BALF [3, 8]: 45.7844 pg/mL and 28.8637 pg/mL and 42.9442 pg/mL and 41.3398 pg/mL and 45.9405 pg/mL and 32.7936 pg/mL
- Recovery [4, 9]: 20.00%
- Response [4, 9]: 93.33%
- Recovery [4, 10]: 35.7%
- Response [4, 10]: 100%
- Recovery [4, 11]: 50%
- Response [4, 11]: 100%
- HPS value (mean) ([4]; compound 16C 20 mg/kg IM, 96 h): 1.08
- HPS ([4]; compound 16C 20 mg/kg IM, 96 h): 0.5 and 1 and 1.5
- HPS value (mean) [4, 6]: 1
- HPS [4, 6]: 1 and 0 and 4 and 0.5 and 1.5
- Recovery ([4]; compound 16C 20 mg/kg IM, from HPS at 192 h (HPS reduced to 0)): 20.00%
- Recovery ([4]; compound 16C 20 mg/kg IM, from HPS at 192 h (HPS reduced to 0), listed as Compound16C): 20%
- Response ([4]; compound 16C 20 mg/kg IM, from HPS at 192 h, n = 13–15): 93.33%
- HPS value (mean) ([4]; compound 16C 40 mg/kg IM, 96 h): 1
- HPS ([4]; compound 16C 40 mg/kg IM, 96 h): 1 and 1.5 and 0
- HPS value (mean) [4, 7]: 0.46
- HPS [4, 7]: 0.5 and 0 and 2 and 1
- Recovery [4, 12]: 35.7%
- Response [4, 12]: 100%
- HPS value (mean) ([4]; compound 16C 80 mg/kg IM, 96 h): 0.75
- HPS ([4]; compound 16C 80 mg/kg IM, 96 h): 0.5 and 0 and 1
- HPS value (mean) [4, 8]: 0.43
- HPS [4, 8]: 0 and 0.5 and 1 and 1.5
- Recovery [4, 13]: 50%
- Response [4, 13]: 100%
- influence on cell viability [5]: slightly more affected
